{"source": "patent US20260364072A1", "about": "“METHODS FOR PROMOTING EXPANSION OF HUMAN CD34+ CELLS IN VIVO AND FOR PROMOTING NEURAL REGENERATION” (THE REGENTS OF THE UNIVERSITY OF CALIFORNIA, priority 2023, published 2026)", "key": {"solid tumors": {"test_system": "solid tumors", "conditions": "cited from earlier work"}, "MDA-MB-231 cells": {"test_system": "MDA-MB-231 cells", "assay": "IVIS total flux in MDA-MB-231 transplanted mice", "format": "in vivo, human cells in Rag2 neonatal mice", "conditions": "0 day after completing the dosing plan; compared to vehicle control", "from_the_text": "FIG. 5 graphically illustrates IVIS (In Vivo Imaging System) results of ADAR1-MDA-MB-231 transplanted Rag2 mouse models, and IVIS images were taken at 6 weeks after transplant (FIG. 5A), after two weeks of therapy (FIG. 5B), and one week after therapy was completed (FIG. 5C), as discussed in further detail in Example 5, below.\nTen thousand (10k) MDA-MB-231 cells were intrahepatically transplanted into Rag2 neonatal mice, then treated with fedratinib, rebecsinib, or a combination of fedratinib and rebecsinib. IVIS images were taken at 6 weeks after transplant (FIG. 5A), after two weeks of therapy (FIG. 5B), and one week after therapy was completed (FIG. 5C). The IVIS signals from the mice were graphed by groups.\nThe IVIS images of these mice were taken at 0 day after completing the dosing plan and are graphed by their total flux."}, "[1]": {"test_system": "ADAR1 and MCL1 transcripts", "assay": "Comparative in vivo study with fedratinib", "parameters": "species or system human cells in mice", "conditions": "twice daily oral 60 mg/kg, two weeks", "description": "Additional aliquots of CD34+ cells from bone marrow and/or spleens of treated and control animals were used for serial transplantation assays after Rebecsinib treatment, including engraftment studies and overall survival assays. In a separate cohort of animals, mice were treated with Fedratinib for two weeks (twice daily oral delivery at 60 mg/kg) as a positive control for modulation of ADAR1 expression and activity.^8"}, "hematologic malignancies": {"test_system": "hematologic malignancies", "conditions": "Phase 1, cited from earlier work"}}, "note": "Structures can show the parent of a compound that is named as a salt."}
{"molecule": "CC[C@H](O)[C@@H](C)[C@H]1O[C@@H]1C[C@@](C)(O)/C=C/C=C(\\C)[C@H]1OC(=O)C[C@H](O)CC[C@@](C)(O)[C@@H](OC(=O)N2CCN(C3CCCCCC3)CC2)/C=C/[C@@H]1C", "note": "[E7107]", "values": [{"measurement": "reversible optic neuritis", "setting": "solid tumors; patients with solid tumors", "result": "2 of 26"}, {"measurement": "stability", "setting": "solid tumors; related to optic neuritis", "result": "compound instability"}]}
{"molecule": "Cc1cnc(Nc2ccc(OCCN3CCCC3)cc2)nc1Nc1cccc(S(=O)(=O)NC(C)(C)C)c1", "note": "[fedratinib, N-tert-butyl-3-[(5-methyl2-{[4-(2-pyrrolidin-1-ylethoxy)phenyl]amino}pyrimidin-4-yl)amino]benzenesulfonamide dihydrochloride monohydrate]", "values": [{"measurement": "total flux (IVIS)", "setting": "MDA-MB-231 cells", "result": "significantly decreased"}, {"measurement": "ADAR1 expression", "setting": "[1]", "result": "significantly reduced ADAR1 expression"}, {"measurement": "MCL1 splicing", "setting": "[1]", "result": "no alteration of MCL1 splicing"}]}
{"molecule": "H3B-8800", "values": [{"measurement": "durable remissions", "setting": "hematologic malignancies", "result": "not sufficiently potent to induce durable remissions"}, {"measurement": "red blood transfusion independence", "setting": "hematologic malignancies; efficacy dependent on SRSF2 mutations", "result": "red blood transfusion independence in some patients"}]}
